Among the data in ChEMBL document CHEMBL3244221, “Attempted inhibition of histidine decarboxylase with beta-alkyl analogues of histidine” (J Med Chem, 1977) are inhibition values, retold here.

Test [1] deals with T1, Histidine decarboxylase (Rattus norvegicus) (UniProt P16453).
T1 sequence (whole entry): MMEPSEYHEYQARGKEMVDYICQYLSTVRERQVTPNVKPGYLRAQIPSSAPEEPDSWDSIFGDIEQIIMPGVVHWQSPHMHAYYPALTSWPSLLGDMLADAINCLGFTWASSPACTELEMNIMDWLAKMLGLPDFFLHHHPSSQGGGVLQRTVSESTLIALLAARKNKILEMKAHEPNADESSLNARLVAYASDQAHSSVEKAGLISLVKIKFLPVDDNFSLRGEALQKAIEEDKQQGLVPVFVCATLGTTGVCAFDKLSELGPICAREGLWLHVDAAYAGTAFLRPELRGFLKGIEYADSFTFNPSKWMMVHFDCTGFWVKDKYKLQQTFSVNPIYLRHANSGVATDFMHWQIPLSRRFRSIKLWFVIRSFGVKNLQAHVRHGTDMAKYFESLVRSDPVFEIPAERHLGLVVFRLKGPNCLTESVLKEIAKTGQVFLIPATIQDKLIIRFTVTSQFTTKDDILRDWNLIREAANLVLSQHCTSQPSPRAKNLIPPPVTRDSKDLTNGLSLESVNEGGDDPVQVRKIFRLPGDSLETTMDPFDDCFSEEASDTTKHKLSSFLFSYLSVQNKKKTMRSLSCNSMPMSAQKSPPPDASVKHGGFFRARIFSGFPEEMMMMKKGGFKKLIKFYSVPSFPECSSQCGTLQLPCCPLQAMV
Put plainly: Inhibition of histidine decarboxylase in Sprague-Dawley rat stomach using L-histidine-carboxyl-[14C] as substrate at 1 X 10^-4 M after 30 mins by scintillation counting analysis.

Test [2] has as its target T1, Histidine decarboxylase (Rattus norvegicus). As to the kind of experiment: Inhibition of histidine decarboxylase in Sprague-Dawley rat stomach using L-histidine-carboxyl-[14C] as substrate at 4 X 10^-6 M after 30 mins by scintillation counting analysis relative to control.

The source made the active and inactive calls. The rule behind the calls is not given here.

By inhibition is commonly meant the change of the read-out against control, counted positive when it falls. As to `CCCCCCC(c1c[nH]cn1)C(N)C(=O)O` (mixture of isomers), the inhibition entry in test [1] is “inactive”.

Regarding `CCC(c1c[nH]cn1)C(N)C(=O)OC` (mixture of isomers), the inhibition entry in test [1] was “inactive”. This compound also had an inhibition in test [2] of 50%. As to `COC(=O)C(N)C(C)c1c[nH]cn1` (mixture of isomers), the inhibition entry in test [1] is “inactive”. In test [2], this compound returned an inhibition of 50%. For the compound `CCC(c1c[nH]cn1)C(N)C(=O)O` (mixture of isomers), the inhibition result in test [1] was “inactive”. As to `CC(c1c[nH]cn1)C(N)C(=O)O` (configuration not stated), the inhibition result in test [1] is “inactive”.
